Patent publication US20250179032A1, “HETEROCYCLIC INHIBITORS OF GLUT9 FOR TREATMENT OF DISEASE” (HORIZON THERAPEUTICS IRELAND DAC, priority 2022, published 2025)

Each compound was assayed against T1, H. sapiens SLC2A9 variant 2 (GLUT9B) (Homo sapiens, UniProt Q9NRM0) (assay: GLUT9 functional assay: uric acid uptake in HEK293T cells, allantoin formation by MS/MS as proxy of GLUT9B inhibition). Conditions: 15 minute assay; HEK293T cells stably expressing GLUT9B and transiently A. oryzae uricase; uric acid 0.3 mM, 37° C.; read-out: 15 min IC50.
T1 sequence (Q9NRM0 1-511 isoform Q9NRM0-2): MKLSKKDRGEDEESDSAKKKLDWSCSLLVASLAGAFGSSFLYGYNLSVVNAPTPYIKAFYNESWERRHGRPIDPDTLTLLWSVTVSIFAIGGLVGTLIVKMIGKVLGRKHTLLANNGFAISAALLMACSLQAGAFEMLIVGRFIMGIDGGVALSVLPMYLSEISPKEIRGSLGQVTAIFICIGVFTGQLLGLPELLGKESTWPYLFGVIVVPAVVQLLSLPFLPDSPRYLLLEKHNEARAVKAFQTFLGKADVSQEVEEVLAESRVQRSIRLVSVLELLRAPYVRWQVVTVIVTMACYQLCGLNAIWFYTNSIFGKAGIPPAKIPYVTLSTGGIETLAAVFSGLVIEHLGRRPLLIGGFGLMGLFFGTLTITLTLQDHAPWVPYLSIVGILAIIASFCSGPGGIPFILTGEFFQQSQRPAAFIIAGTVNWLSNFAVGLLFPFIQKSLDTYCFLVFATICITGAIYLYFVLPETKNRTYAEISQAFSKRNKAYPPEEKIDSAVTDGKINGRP
Format: cell-based
Procedure, shortened: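 HEK293T cells stably expressing human GLUT9B and transiently expressing A. oryzae uricase, exposed across a 12-point curve to 0.3 mM uric acid (Km) in sodium gluconate buffer pH 7.4 for 15 or 60 min at 37° C. Allantoin in lysates quantified by RapidFire MS/MS (positive ion) against a matrix-matched standard curve as proxy for uptake.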
Work on `O=C(O)C1CCN(c2nc(CCC(F)(F)C(F)(F)F)cnc2-c2ccc3c(c2)OCO3)CC1` [Compound 126, 1-(3-(benzo[d][1,3]dioxol-5-yl)-6-(3,3,4,4,4-pentafluorobutyl)pyrazin-2-yl)piperidine-4-carboxylic acid] yielded an IC50 of less than 0.5 µM. With `O=C(O)C1CCN(c2nc(CC(C(F)(F)F)C(F)(F)F)cnc2-c2ccc3c(c2)OCO3)CC1` [Compound 127, 1-(3-(benzo[d][1,3]dioxol-5-yl)-6-(3,3,3-trifluoro-2-(trifluoromethyl)propyl)pyrazin-2-yl)piperidine-4-carboxylic acid] the IC50 was 0.5 to 2 µM. Work on `O=C(O)C1CCN(c2nc(CCCC(F)(F)F)cnc2-c2cc(F)c3occc3c2)CC1` [Compound 129, 1-(3-(7-fluorobenzofuran-5-yl)-6-(4,4,4-trifluorobutyl)pyrazin-2-yl)piperidine-4-carboxylic acid] yielded an IC50 of less than 0.5 µM. Work on `O=C(O)C1CCN(c2nc(CCCCC(F)(F)F)cnc2-c2ccc3occc3c2)CC1` [Compound 130, 1-(3-(benzofuran-5-yl)-6-(5,5,5-Trifluoropentyl)Pyrazin-2-yl)Piperidine-4-carboxylic acid] yielded an IC50 of less than 0.5 µM. For `O=C(O)C1CCN(c2nc(CCCCC(F)(F)F)cnc2-c2ccc3c(c2)CCO3)CC1` [Compound 131, 1-(3-(2,3-dihydrobenzofuran-5-yl)-6-(5,5,5-trifluoropentyl)pyrazin-2-yl)piperidine-4-carboxylic acid], the IC50 was less than 0.5 µM. Compound `O=C(O)C1CCN(c2nc(CCCCC(F)(F)F)cnc2-c2ccc3c(c2)OCO3)CC1` [Compound 132, 1-(3-(benzo[d][1,3]dioxol-5-yl)-6-(5,5,5-trifluoropentyl)pyrazin-2-yl)piperidine-4-carboxylic acid] has an IC50 of less than 0.5 µM. `COCCOc1ccc(-c2ncc(CCCCC(F)(F)F)nc2N2CCC(C(=O)O)CC2)cc1` [Compound 133, 1-(3-(4-(2-methoxyethoxy)phenyl)-6-(5,5,5-trifluoropentyl)pyrazin-2-yl)piperidine-4-carboxylic acid] gave an IC50 of less than 0.5 µM. In the case of `CC(F)(F)CCc1cnc(-c2ccc3occc3c2)c(N2CCC(C(=O)O)CC2)n1` [Compound 134, 1-(3-(benzofuran-5-yl)-6-(3,3-difluorobutyl)pyrazin-2-yl)piperidine-4-carboxylic acid], the IC50 is reported as less than 0.5 µM. In the case of `CC(F)(F)CCc1cnc(-c2ccc3c(c2)CCO3)c(N2CCC(C(=O)O)CC2)n1` [Compound 135, 1-(6-(3,3-difluorobutyl)-3-(2,3-dihydrobenzofuran-5-yl)pyrazin-2-yl)piperidine-4-carboxylic acid], the IC50 is reported as 0.5 to 2 µM. With `CC(F)(F)CCc1cnc(-c2ccc3c(c2)OCO3)c(N2CCC(C(=O)O)CC2)n1` [Compound 136] the IC50 was less than 0.5 µM. In the case of `COCCOc1ccc(-c2ncc(CCC(C)(F)F)nc2N2CCC(C(=O)O)CC2)cc1` [Compound 137, 1-(6-(3,3-difluorobutyl)-3-(4-(2-methoxyethoxy)phenyl)pyrazin-2-yl)piperidine-4-carboxylic acid], the IC50 is reported as 0.5 to 2 µM. Compound `COCCCCc1cnc(-c2ccc3occc3c2)c(N2CCC(C(=O)O)CC2)n1` [Compound 138, 1-(3-(benzofuran-5-yl)-6-(4-methoxybutyl)pyrazin-2-yl)piperidine-4-carboxylic acid] has an IC50 of less than 0.5 µM. `COCCCCc1cnc(-c2ccc3c(c2)CCO3)c(N2CCC(C(=O)O)CC2)n1` [Compound 139, 1-(3-(2,3-dihydrobenzofuran-5-yl)-6-(4-methoxybutyl)pyrazin-2-yl)piperidine-4-carboxylic acid] showed an IC50 of less than 0.5 µM. `COCCCCc1cnc(-c2ccc3c(c2)OCO3)c(N2CCC(C(=O)O)CC2)n1` [Compound 140, 1-(3-(benzo[d][1,3]dioxol-5-yl)-6-(4-methoxybutyl)pyrazin-2-yl)piperidine-4-carboxylic acid] gave an IC50 of less than 0.5 µM. `COCCCCc1cnc(-c2ccc(OCCOC)cc2)c(N2CCC(C(=O)O)CC2)n1` [Compound 141, 1-(6-(4-methoxybutyl)-3-(4-(2-methoxyethoxy)phenyl)pyrazin-2-yl)piperidine-4-carboxylic acid] showed an IC50 of less than 0.5 µM. Work on `O=C(O)C1CCN(c2nc(CCCC(F)F)cnc2-c2ccc3occc3c2)CC1` [Compound 142, 1-(3-(benzofuran-5-yl)-6-(4,4-difluorobutyl)pyrazin-2-yl)piperidine-4-carboxylic acid] yielded an IC50 of less than 0.5 µM. Work on `O=C(O)C1CCN(c2nc(CCCC(F)F)cnc2-c2ccc3c(c2)CCO3)CC1` [Compound 143, 1-(6-(4,4-difluorobutyl)-3-(2,3-dihydrobenzofuran-5-yl)pyrazin-2-yl)piperidine-4-carboxylic acid] yielded an IC50 of less than 0.5 µM. For `O=C(O)C1CCN(c2nc(CCCC(F)F)cnc2-c2ccc3c(c2)OCO3)CC1` [Compound 144, 1-(3-(benzo[d][1,3]dioxol-5-yl)-6-(4,4-difluorobutyl)pyrazin-2-yl)piperidine-4-carboxylic acid], the IC50 was less than 0.5 µM. With `COCCOc1ccc(-c2ncc(CCCC(F)F)nc2N2CCC(C(=O)O)CC2)cc1` [Compound 145, 1-(6-(4,4-difluorobutyl)-3-(4-(2-methoxyethoxy)phenyl)pyrazin-2-yl)piperidine-4-carboxylic acid] the IC50 was less than 0.5 µM. With `O=c1[nH]c(C2CCN(c3nc(CCC(F)(F)F)cnc3-c3cc(F)c4occc4c3)CC2)no1` [Compound 146, 3-(1-(3-(7-fluorobenzofuran-5-yl)-6-(3,3,3-trifluoropropyl)pyrazin-2-yl)piperidin-4-yl)-1,2,4-oxadiazol-5(4H)-one] the IC50 was less than 0.5 µM. `CCCCCc1cnc(-c2cc(F)c3occc3c2)c(N2CCC(C(=O)O)CC2)n1` [Compound 147, 1-(3-(7-fluorobenzofuran-5-yl)-6-pentylpyrazin-2-yl)piperidine-4-carboxylic acid] gave an IC50 of less than 0.5 µM. Work on `CCC(F)(F)Cc1cnc(-c2ccc(OCCOC)cc2)c(N2CCC(C(=O)O)CC2)n1` [Compound 148, 1-(6-(2,2-difluorobutyl)-3-(4-(2-methoxyethoxy)phenyl)pyrazin-2-yl)piperidine-4-carboxylic acid] yielded an IC50 greater than 2 µM. With `CCC(F)(F)Cc1cnc(-c2ccc3occc3c2)c(N2CCC(C(=O)O)CC2)n1` [Compound 149, 1-(3-(benzofuran-5-yl)-6-(2,2-difluorobutyl)pyrazin-2-yl)piperidine-4-carboxylic acid] the IC50 was less than 0.5 µM. For `CCC(F)(F)Cc1cnc(-c2ccc(OCC3CC3)cc2)c(N2CCC(C(=O)O)CC2)n1` [Compound 150, 1-(3-(4-(cyclopropylmethoxy)phenyl)-6-(2,2-difluorobutyl)pyrazin-2-yl)piperidine-4-carboxylic acid], the IC50 was 0.5 to 2 µM. In the case of `O=C(O)C1CCN(c2nc(CCCOC(F)(F)F)cnc2-c2ccc3occc3c2)CC1` [Compound 151, 1-(3-(benzofuran-5-yl)-6-(3-(trifluoromethoxy)propyl)pyrazin-2-yl)piperidine-4-carboxylic acid], the IC50 is reported as less than 0.5 µM. Compound `O=C(O)C1CCN(c2nc(CCC(F)(F)F)cnc2-c2ccc(OCC3CC3)cc2)CC1` [Compound 152, 1-(3-(4-(cyclopropylmethoxy)phenyl)-6-(3,3,3-trifluoropropyl)pyrazin-2-yl)piperidine-4-carboxylic acid] has an IC50 of less than 0.5 µM. With `O=C(O)C1CCN(c2nc(CCCCC(F)(F)F)cnc2-c2ccc(OCC3CC3)cc2)CC1` [Compound 153, 1-(3-(4-(cyclopropylmethoxy)phenyl)-6-(5,5,5-trifluoropentyl)pyrazin-2-yl)piperidine-4-carboxylic acid] the IC50 was less than 0.5 µM. With `O=C(O)C1CCN(c2nc(CCC(F)(F)C(F)(F)F)cnc2-c2ccc(OCC3CC3)cc2)CC1` [Compound 154, 1-(3-(4-(cyclopropylmethoxy)phenyl)-6-(3,3,4,4,4-pentafluorobutyl)pyrazin-2-yl)piperidine-4-carboxylic acid] the IC50 was 0.5 to 2 µM. In the case of `COCCOc1ccc(-c2ncc(CC(COC)COC)nc2N2CCC(C(=O)O)CC2)cc1` [Compound 155, 1-(6-(3-methoxy-2-(methoxymethyl)propyl)-3-(4-(2-methoxyethoxy)phenyl)pyrazin-2-yl)piperidine-4-carboxylic acid], the IC50 is reported as greater than 2 µM. Compound `COCC(COC)Cc1cnc(-c2ccc(OCC3CC3)cc2)c(N2CCC(C(=O)O)CC2)n1` [Compound 156, 1-(3-(4-(cyclopropylmethoxy)phenyl)-6-(3-methoxy-2-(methoxymethyl)propyl)pyrazin-2-yl)piperidine-4-carboxylic acid] has an IC50 greater than 2 µM. Compound `O=C(O)C1CCN(c2nc(CCCC(F)(F)F)cnc2-c2ccc(OC(F)(F)F)cc2)CC1` [Compound 157, 1-(6-(4,4,4-trifluorobutyl)-3-(4-(trifluoromethoxy)phenyl)pyrazin-2-yl)piperidine-4-carboxylic acid] has an IC50 of less than 0.5 µM. `O=C(O)C1CCN(c2nc(CCCC(F)(F)F)cnc2-c2ccc(C(F)(F)F)cc2)CC1` [Compound 158, 1-(6-(4,4,4-trifluorobutyl)-3-(4-(trifluoromethyl)phenyl)pyrazin-2-yl)piperidine-4-carboxylic acid] gave an IC50 of 0.5 to 2 µM. Compound `O=C(O)C1CCN(c2nc(CCCC(F)(F)F)cnc2-c2ccc(OC(F)F)cc2)CC1` [Compound 159, 1-(3-(4-(difluoromethoxy)phenyl)-6-(4,4,4-trifluorobutyl)pyrazin-2-yl)piperidine-4-carboxylic acid] has an IC50 of 0.5 to 2 µM.

Same assay, conditions: 60 minute assay; HEK293T cells stably expressing GLUT9B and transiently A. oryzae uricase; uric acid 0.3 mM, 37° C.; read-out: 60 min IC50
Compound `COCCCCc1cnc(-c2ccc3occc3c2)c(N2CCC(C(=O)O)CC2)n1` [Compound 138, 1-(3-(benzofuran-5-yl)-6-(4-methoxybutyl)pyrazin-2-yl)piperidine-4-carboxylic acid] has an IC50 of less than 0.5 µM. Work on `O=C(O)C1CCN(c2nc(CCCC(F)F)cnc2-c2ccc3occc3c2)CC1` [Compound 142, 1-(3-(benzofuran-5-yl)-6-(4,4-difluorobutyl)pyrazin-2-yl)piperidine-4-carboxylic acid] yielded an IC50 of less than 0.5 µM. Work on `CCC(F)(F)Cc1cnc(-c2ccc(OCC3CC3)cc2)c(N2CCC(C(=O)O)CC2)n1` [Compound 150, 1-(3-(4-(cyclopropylmethoxy)phenyl)-6-(2,2-difluorobutyl)pyrazin-2-yl)piperidine-4-carboxylic acid] yielded an IC50 greater than 2 µM.
